# Results taken from US6022861A, “Ketoheterocyclic inhibitors of factor Xa” (COR Therapeutics, Inc., priority 1995, dated 2000).
# Legend:
# thrombin = thrombin (Homo sapiens, UniProt P00734); assay: Thrombin amidolytic assay (Chromozym TH); assay type: biochemical; conditions: read-out: Inhibitory Activity (IC50) Thrombin
# Description: The compounds of the present invention are dissolved in buffer to give solutions containing concentrations such that assay concentrations range from 0 to 100 μM. In the assays for thrombin, prothrombinase and factor Xa, a synthetic chromogenic substrate is added to a solution containing test compound and the enzyme of interest and the residual catalytic activity of that enzyme is determined spectrophotometrically. The IC50 of a compound is determined from the substrate turnover.
# The factor Xa and thrombin assays were performed at room temperature, in 0.02 M Tris·HCl buffer, pH 7.5, containing 0.15 M NaCl. The rates of hydrolysis of the para-nitroanilide substrate S-2765 (Chromogenix) for factor Xa, and the substrate Chromozym TH (Boehringer Mannheim) for thrombin following preincubation of the enzyme with inhibitor for 5 minutes at room temperature, and were determined using the Softmax 96-well plate reader (Molecular Devices), monitored at 405 nm to measure the time dependent appearance of p-nitroaniline.
# [1] = rabbit, in vivo
# Description: (§2) Rabbits were anesthetized with I.M. injections of Ketamine, Xylazine, and Acepromazine cocktail. A standardized protocol consisted of insertion of a thrombogenic cotton thread and copper wire apparatus into the abdominal vena cava of the anesthetized rabbit. A non-occlusive thrombus was allowed to develop in the central venous circulation and inhibition of thrombus growth was used as a measure of the antithrombotic activity of the studied compounds. Test agents or control saline were administered through a marginal ear vein catheter. A femoral vein catheter was used for blood sampling prior to and during steady state infusion of test compound. Initiation of thrombus formation begins immediately after advancement of the cotton thread apparatus into the central venous circulation. Test compounds were administered from time=30 min to time=150 min at which the experiment was terminated. The rabbits were euthanized and the thrombus excised by surgical dissection and characterized by weight and histology. Blood samples were analyzed for changes in hematological and coagulation parameters.
# [2] = system: Rabbit Model of Venous Thrombosis; assay: Rabbit deep vein thrombosis model, inhibition of thrombus growth; assay type: in vivo; conditions: for % Inhibition of Thrombosis: rabbit
# Description: as §2
# prothrombinase complex = prothrombinase complex (Homo sapiens, UniProt P00742); assay: Prothrombinase inhibition assay (plasma free system, Chromozym TH); assay type: biochemical; conditions: read-out: Inhibitory Activity (IC50) Prothrombinase
# Sequence of prothrombinase complex (P00742 41-179 limits assumed): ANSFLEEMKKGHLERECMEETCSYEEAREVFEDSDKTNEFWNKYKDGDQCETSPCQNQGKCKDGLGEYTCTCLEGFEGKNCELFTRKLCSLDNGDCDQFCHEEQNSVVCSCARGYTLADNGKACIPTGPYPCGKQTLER
# Sequence of prothrombinase complex (P00742 235-488 limits assumed): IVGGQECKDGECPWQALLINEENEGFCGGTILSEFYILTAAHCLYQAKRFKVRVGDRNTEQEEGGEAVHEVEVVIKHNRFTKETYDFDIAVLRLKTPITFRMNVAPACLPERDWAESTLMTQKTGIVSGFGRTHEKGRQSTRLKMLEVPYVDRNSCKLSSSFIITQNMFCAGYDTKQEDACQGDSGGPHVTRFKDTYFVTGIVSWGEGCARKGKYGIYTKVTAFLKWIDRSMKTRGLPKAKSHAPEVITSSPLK
# Sequence of prothrombinase complex (P12259 29-737 partner limits assumed): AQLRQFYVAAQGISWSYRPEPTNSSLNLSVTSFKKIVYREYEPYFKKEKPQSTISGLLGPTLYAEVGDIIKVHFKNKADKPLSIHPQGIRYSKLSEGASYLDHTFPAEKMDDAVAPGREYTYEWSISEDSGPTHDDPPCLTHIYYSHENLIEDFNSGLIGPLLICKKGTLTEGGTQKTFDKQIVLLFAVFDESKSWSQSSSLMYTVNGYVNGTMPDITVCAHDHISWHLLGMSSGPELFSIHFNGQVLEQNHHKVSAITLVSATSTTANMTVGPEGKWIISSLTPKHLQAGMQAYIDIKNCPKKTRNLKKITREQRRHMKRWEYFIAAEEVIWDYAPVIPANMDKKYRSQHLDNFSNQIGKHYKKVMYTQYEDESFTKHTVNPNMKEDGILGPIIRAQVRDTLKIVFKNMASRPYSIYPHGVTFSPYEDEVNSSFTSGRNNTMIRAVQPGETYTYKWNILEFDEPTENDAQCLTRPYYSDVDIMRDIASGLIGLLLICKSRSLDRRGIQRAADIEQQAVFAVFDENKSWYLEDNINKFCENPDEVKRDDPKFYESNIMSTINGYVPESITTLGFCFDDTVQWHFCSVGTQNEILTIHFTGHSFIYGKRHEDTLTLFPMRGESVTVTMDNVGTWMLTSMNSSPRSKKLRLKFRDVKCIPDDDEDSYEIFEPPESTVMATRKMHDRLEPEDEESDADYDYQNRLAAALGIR
# Sequence of prothrombinase complex (P12259 1574-2224 partner limits assumed): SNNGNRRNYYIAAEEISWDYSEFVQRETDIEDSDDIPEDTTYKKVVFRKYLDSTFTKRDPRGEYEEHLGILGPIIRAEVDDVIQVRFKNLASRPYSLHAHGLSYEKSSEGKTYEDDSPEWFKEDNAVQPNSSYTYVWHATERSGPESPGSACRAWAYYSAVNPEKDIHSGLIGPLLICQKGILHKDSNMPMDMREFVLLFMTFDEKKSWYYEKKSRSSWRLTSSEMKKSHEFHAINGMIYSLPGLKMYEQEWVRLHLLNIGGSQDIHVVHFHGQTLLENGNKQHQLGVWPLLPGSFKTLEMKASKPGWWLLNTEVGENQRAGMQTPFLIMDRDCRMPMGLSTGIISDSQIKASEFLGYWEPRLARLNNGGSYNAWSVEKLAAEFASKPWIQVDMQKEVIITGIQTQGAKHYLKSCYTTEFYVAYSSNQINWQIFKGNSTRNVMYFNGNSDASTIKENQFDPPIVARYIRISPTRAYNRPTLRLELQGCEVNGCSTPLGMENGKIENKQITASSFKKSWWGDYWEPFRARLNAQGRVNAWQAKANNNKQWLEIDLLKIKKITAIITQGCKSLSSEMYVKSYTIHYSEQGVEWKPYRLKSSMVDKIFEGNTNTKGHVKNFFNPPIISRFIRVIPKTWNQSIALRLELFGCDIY
# Description: (§1) In the assays for thrombin, prothrombinase and factor Xa, a synthetic chromogenic substrate is added to a solution containing test compound and the enzyme of interest and the residual catalytic activity of that enzyme is determined spectrophotometrically. The IC50 of a compound is determined from the substrate turnover.
# [3] = Coagulation parameters (aPTT, PT) in rabbit venous thrombosis model; assay type: in vivo; conditions: for PT fold increase over baseline / aPTT fold increase over baseline: steady state, mean ± SD
# Description: as §2
# factor Xa = factor Xa (Homo sapiens, UniProt P00742); assay: Factor Xa amidolytic assay (chromogenic substrate S-2765); assay type: biochemical; conditions: read-out: Inhibitory Activity (IC50) Factor Xa
# Sequence of factor Xa (P00742 41-179 limits assumed): as the sequence (P00742 41-179 limits assumed) above
# Sequence of factor Xa (P00742 235-488 limits assumed): as the sequence (P00742 235-488 limits assumed) above
# Description: as §1
# [4] = highest dose (100 μg/kg+2.57 μg/kg/min)
SMILES,IC50 (thrombin) [µM],effects on hematological parameters [1],antithrombotic efficacy in the rabbit venous thrombosis model ([2]; at the higher doses evaluated),% Inhibition of Thrombosis ([2]; dose regimen 50 + 1.28 (μg/kg + μg/kg/min)) [%],% Inhibition of Thrombosis ([2]; dose regimen 75 + 1.93 (μg/kg + μg/kg/min)) [%],% Inhibition of Thrombosis ([2]; dose regimen 100 + 2.57 (μg/kg + μg/kg/min)) [%],IC50 (prothrombinase complex) [nM],PT fold increase over baseline ([3]; 50 + 1.28 (μg/kg + μg/kg/min)) [fold],aPTT fold increase over baseline ([3]; 50 + 1.28 (μg/kg + μg/kg/min)) [fold],PT fold increase over baseline ([3]; 75 + 1.93 (μg/kg + μg/kg/min)) [fold],aPTT fold increase over baseline ([3]; 75 + 1.93 (μg/kg + μg/kg/min)) [fold],PT fold increase over baseline ([3]; 100 + 2.57 (μg/kg + μg/kg/min)) [fold],aPTT fold increase over baseline ([3]; 100 + 2.57 (μg/kg + μg/kg/min)) [fold],"effect on PT prolongation [3, 4]","effect on aPTT prolongation [3, 4]",IC50 (factor Xa) [nM]
"N=C(N)NCCC[C@H](NC(=O)CNC(=O)[C@@H](CCCNC(=N)N)NS(=O)(=O)Cc1ccccc1)C(=O)c1nccs1 [BriSO2 -(D)-Arg-Gly-Arg-thiazole, BnSO2 -(D)-Ar g-Gly-Arg-Thiazole]",10,,,,,,,,,,,,,,,
"NC(N)=NCCCC(N)C(=O)NCC(=O)NC(CCCN=C(N)N)C(=O)c1nccs1 [H-D-Arg-Gly-Arg-thiazole, H-(D)-Arg-Gly-Arg-Thiazole]",41,no significant effects,demonstrated antithrombotic efficacy,-7.84,42.95,117.72,10,1.00 ± 0.00,1.00 ± 0.03,1.00 ± 0.00,1.02 ± 0.03,0.83 ± 0.00,1.08 ± 0.02,no significant effect,no significant effect,11
